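Five concentrations, 48 hours, 96-well plates. At the GI50, growth is halved.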 Active and inactive are the calls of the source. Cut-off read from the data, not from the text of the source: active = GI50 up to about 1.1 µM and inactive = higher.
Columns and labels:
Experiment in all cases: inhibition of tumour cell growth, NCI panel, 48 h
[1] = system: OVCAR-8
[2] = system: IGROV-1
[3] = system: OVCAR-5
[4] = system: TK-10
[5] = system: MOLT-4
[6] = system: OVCAR-4
[7] = system: U-251
[8] = system: CCRF-CEM
[9] = system: SK-MEL-5
[10] = system: HL-60
[11] = system: UACC-62
[12] = system: DMS-273
[13] = system: SW-620
[14] = system: A549
[15] = system: KM-20L2
[16] = system: ACHN
[17] = system: RPMI-8226
[18] = system: LXFL 529
[19] = system: HCT-15
[20] = system: HCC 2998
[21] = system: SN12C
[22] = system: COLO 205
[23] = system: SK-OV-3
[24] = system: XF498
[25] = system: K562
[26] = system: EKVX
[27] = system: M19-MEL
[28] = system: SK-MEL-2
[29] = system: DMS-114
[30] = system: HOP-62
[31] = system: DLD-1
[32] = system: CAKI-1
[33] = system: M14
[34] = system: 786-0
[35] = system: SR
[36] = system: LOX IMVI
[37] = system: Malme-3M
[38] = system: HT-29
[39] = system: SK-MEL-28
[40] = system: NCI-H522
[41] = system: UACC-257
[42] = system: NCI-H226
[43] = system: SF-268
[44] = system: RXF 393
[45] = system: OVCAR-3
[46] = system: SF-539
[47] = system: SF-295
[48] = system: UO-31
[49] = system: HOP-18
[50] = system: HCT-116
[51] = system: NCI-H460
[52] = system: SNB-19
[53] = system: SNB-78
[54] = system: KM12

## CC#Cc1c(O)c2c(c(O)c1C#CC)C(=O)c1ccccc1C2=O
[1]
  GI50: > 100 µM (inactive)
[2]
  GI50: > 100 µM (inactive)
[3]
  GI50: > 100 µM (inactive)
[4]
  GI50: > 100 µM (inactive)
[5]
  GI50: > 100 µM (inactive)
[6]
  GI50: > 100 µM (inactive)
[7]
  GI50: > 100 µM (inactive)
[8]
  GI50: > 100 µM (inactive)
[9]
  GI50: > 100 µM (inactive)
[10]
  GI50: > 100 µM (inactive)
[11]
  GI50: 64.6 µM (inactive)
[12]
  GI50: > 100 µM (inactive)
[13]
  GI50: > 100 µM (inactive)
[14]
  GI50: > 100 µM (inactive)
[15]
  GI50: > 100 µM (inactive)
[16]
  GI50: > 100 µM (inactive)
[17]
  GI50: 54.5 µM (inactive)
[18]
  GI50: 11 µM (inactive)
[19]
  GI50: > 100 µM
[20]
  GI50: > 100 µM (inactive)
[21]
  GI50: > 100 µM (inactive)
[22]
  GI50: > 100 µM (inactive)
[23]
  GI50: > 100 µM (inactive)
[24]
  GI50: > 100 µM (inactive)
[25]
  GI50: > 100 µM (inactive)
[26]
  GI50: > 100 µM (inactive)
[27]
  GI50: > 100 µM (inactive)
[28]
  GI50: > 100 µM (inactive)
[29]
  GI50: > 100 µM (inactive)
[30]
  GI50: > 100 µM (inactive)
[31]
  GI50: > 100 µM (inactive)
[32]
  GI50: > 100 µM (inactive)
[33]
  GI50: > 100 µM (inactive)
[34]
  GI50: > 100 µM (inactive)
[35]
  GI50: > 100 µM (inactive)
[36]
  GI50: 93.5 µM (inactive)
[37]
  GI50: > 100 µM (inactive)

## O=[N+]([O-])c1ccc(-c2noc(-c3ccc(Cl)cc3)c2C2=NCCN2)cc1
[1]
  GI50: > 100 µM (inactive)
[38]
  GI50: > 100 µM (inactive)
[2]
  GI50: > 100 µM (inactive)
[3]
  GI50: > 100 µM (inactive)
[5]
  GI50: > 100 µM (inactive)
[6]
  GI50: > 100 µM (inactive)
[7]
  GI50: > 100 µM (inactive)
[39]
  GI50: > 100 µM (inactive)
[8]
  GI50: > 100 µM (inactive)
[9]
  GI50: > 100 µM (inactive)
[10]
  GI50: > 100 µM (inactive)
[40]
  GI50: > 100 µM (inactive)
[41]
  GI50: > 100 µM (inactive)
[11]
  GI50: > 100 µM (inactive)
[13]
  GI50: > 100 µM (inactive)
[14]
  GI50: > 100 µM (inactive)
[42]
  GI50: > 100 µM (inactive)
[15]
  GI50: > 100 µM (inactive)
[43]
  GI50: > 100 µM (inactive)
[16]
  GI50: > 100 µM (inactive)
[17]
  GI50: > 100 µM (inactive)
[18]
  GI50: > 100 µM (inactive)
[19]
  GI50: > 100 µM
[44]
  GI50: > 100 µM (inactive)
[20]
  GI50: > 100 µM (inactive)
[45]
  GI50: > 100 µM (inactive)
[21]
  GI50: > 100 µM (inactive)
[22]
  GI50: > 100 µM (inactive)
[46]
  GI50: > 100 µM (inactive)
[24]
  GI50: > 100 µM (inactive)
[25]
  GI50: > 100 µM (inactive)
[26]
  GI50: > 100 µM (inactive)
[27]
  GI50: > 100 µM (inactive)
[47]
  GI50: > 100 µM (inactive)
[28]
  GI50: > 100 µM (inactive)
[48]
  GI50: > 100 µM (inactive)
[30]
  GI50: > 100 µM (inactive)
[31]
  GI50: > 100 µM (inactive)
[32]
  GI50: > 100 µM (inactive)
[33]
  GI50: > 100 µM (inactive)
[49]
  GI50: 94.2 µM (inactive)
[50]
  GI50: > 100 µM (inactive)
[34]
  GI50: > 100 µM (inactive)
[35]
  GI50: > 100 µM (inactive)
[36]
  GI50: > 100 µM (inactive)
[51]
  GI50: > 100 µM (inactive)
[52]
  GI50: > 100 µM (inactive)
[53]
  GI50: > 100 µM (inactive)
[37]
  GI50: > 100 µM (inactive)
[54]
  GI50: > 100 µM (inactive)

— ChEMBL document CHEMBL1201862, “PubChem BioAssay data set” (2004)
